Reference: patent US11147782B1, “GHB formulation and method for its manufacture” (JAZZ PHARMACEUTICALS IRELAND LIMITED, priority 2015, dated 2021)

Tests used:
[1] = Affinity for the exchange site of the anion exchange resin, estimated from pKa; assay type: physicochemical; details: estimated from pKa relative to other short-chain fatty acids
Source text: The affinity can be estimated based on the pKa of GHB (4.44) relative to other short-chain fatty acids for which affinities are known.

[2] = Xyrem solution is 500 mg/mL (42 wt %); solubility limit considerably higher; cited from earlier work

SMILES	affinity relative to chloride on the anion exchange resin [1]	solubility limit in water [2] [mg/mL]
O=C(O)O [Bicarbonate]	about 27%	–
O=C(O)CCCO [sodium oxybate, Sodium oxybate]	–	> 500
